Laboratory results taken from ChEMBL document CHEMBL1201862, “PubChem BioAssay data set” (2004).
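Each compound was tested at five concentrations against cells in 96-well plates for 48 hours. GI50 marks 50% less growth.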 Calls of active or inactive are those of the source. No stated cut-off is given here; in the data, active = GI50 up to about 1.1 µM and inactive = higher.

Columns and labels:
Assay in all cases: NCI-60 cell line screen, 48 h
MDA-N = system: MDA-N
SNB-75 = system: SNB-75
OVCAR-5 = system: OVCAR-5
SF-295 = system: SF-295
Hs-578T = system: Hs-578T
HCT-116 = system: HCT-116
SR = system: SR
MDA-MB-231 = system: MDA-MB-231
786-0 = system: 786-0
SF-539 = system: SF-539
SF-268 = system: SF-268
SK-MEL-5 = system: SK-MEL-5
HT-29 = system: HT-29
NCI-H522 = system: NCI-H522
HOP-92 = system: HOP-92
OVCAR-4 = system: OVCAR-4
U-251 = system: U-251
CAKI-1 = system: CAKI-1
OVCAR-8 = system: OVCAR-8
HCC 2998 = system: HCC 2998

Measured: GI50

O=C1C2CCN(CC2)C1(CO)CO
inactive: MDA-N 39.1 µM | SNB-75 57.7 µM | OVCAR-5 26 µM | SF-295 > 100 µM | Hs-578T 31.3 µM | HCT-116 17 µM | SR 20 µM | MDA-MB-231 20.9 µM | 786-0 28.2 µM | SF-539 40.9 µM | SF-268 > 100 µM | SK-MEL-5 47.4 µM | HT-29 28 µM | NCI-H522 13.1 µM | HOP-92 22 µM | OVCAR-4 19.4 µM | U-251 41.1 µM | CAKI-1 19.2 µM | OVCAR-8 28.1 µM

C=C1C[C@]23CC[C@@H]4C(CO)(CO)CC(=O)C[C@]4(C)[C@@H]2CC[C@H]1C3
inactive: MDA-N > 100 µM | SNB-75 > 100 µM | OVCAR-5 > 100 µM | SF-295 > 100 µM | Hs-578T > 100 µM | HCT-116 > 100 µM | SR > 100 µM | MDA-MB-231 > 100 µM | 786-0 > 100 µM | SF-539 > 100 µM | SF-268 > 100 µM | HT-29 > 100 µM | NCI-H522 > 100 µM | HOP-92 > 100 µM | HCC 2998 > 100 µM | OVCAR-4 > 100 µM | U-251 > 100 µM | CAKI-1 > 100 µM | OVCAR-8 > 100 µM

CCOc1cc(C2CC(c3ccc(NS(=O)(=O)c4cc([N+](=O)[O-])ccc4C)cc3)=NN2)ccc1O (stereo not given)
inactive: MDA-N 33.2 µM | SNB-75 29.8 µM | OVCAR-5 32.1 µM | Hs-578T 65 µM | HCT-116 20.4 µM | SR 22.4 µM | MDA-MB-231 25.5 µM | 786-0 20.1 µM | SF-539 45.7 µM | SF-268 45.5 µM | SK-MEL-5 19.2 µM | HT-29 26.8 µM | NCI-H522 26.9 µM | HOP-92 45 µM | OVCAR-4 22.8 µM | CAKI-1 29.3 µM | OVCAR-8 44.5 µM

CC1=NN(c2nc(N)nc(/C(C#N)=C\C3COc4ccccc4C3=O)n2)C(C)(C)C1 (stereo not given)
inactive: MDA-N 18.9 µM | OVCAR-5 35.6 µM | SF-295 31.3 µM | Hs-578T 24 µM | HCT-116 20.6 µM | SR 17.6 µM | MDA-MB-231 30.1 µM | 786-0 19.2 µM | SF-539 26.2 µM | SF-268 21.1 µM | SK-MEL-5 18.7 µM | HT-29 26.5 µM | NCI-H522 26.2 µM | HOP-92 36.5 µM | HCC 2998 30.4 µM | OVCAR-4 34 µM | U-251 24.5 µM | CAKI-1 23.6 µM | OVCAR-8 25.6 µM

CC(NC1=NCCO1)c1ccco1 (stereo not given)
inactive: MDA-N 95.9 µM | OVCAR-5 > 100 µM | SF-295 > 100 µM | Hs-578T > 100 µM | HCT-116 > 100 µM | SR 75.9 µM | MDA-MB-231 > 100 µM | 786-0 > 100 µM | SF-539 > 100 µM | SF-268 > 100 µM | SK-MEL-5 86.9 µM | HT-29 93.8 µM | NCI-H522 > 100 µM | HOP-92 > 100 µM | HCC 2998 > 100 µM | OVCAR-4 > 100 µM | U-251 > 100 µM | CAKI-1 > 100 µM | OVCAR-8 > 100 µM

O=C1c2cc(O)c(O)cc2O[C@H](c2ccc(O)c(O)c2)[C@H]1O
inactive: MDA-N > 100 µM | SNB-75 > 100 µM | OVCAR-5 > 100 µM | SF-295 > 100 µM | Hs-578T > 100 µM | HCT-116 > 100 µM | SR > 100 µM | MDA-MB-231 > 100 µM | 786-0 > 100 µM | SF-539 > 100 µM | SF-268 > 100 µM | SK-MEL-5 > 100 µM | HT-29 > 100 µM | NCI-H522 > 100 µM | HOP-92 > 100 µM | HCC 2998 > 100 µM | U-251 > 100 µM | CAKI-1 > 100 µM | OVCAR-8 > 100 µM

CN(C)Cc1cc(C(=O)O)cc(CN(C)C)c1O
inactive: MDA-N > 100 µM | SNB-75 > 100 µM | OVCAR-5 > 100 µM | SF-295 > 100 µM | Hs-578T > 100 µM | HCT-116 > 100 µM | SR > 100 µM | MDA-MB-231 > 100 µM | 786-0 > 100 µM | SF-268 > 100 µM | SK-MEL-5 > 100 µM | HT-29 > 100 µM | NCI-H522 > 100 µM | HOP-92 > 100 µM | HCC 2998 > 100 µM | OVCAR-4 > 100 µM | U-251 > 100 µM | CAKI-1 > 100 µM | OVCAR-8 > 100 µM

C1CCNCC1.Oc1ncnc2[nH]cc(CN3CCCCC3)c12
inactive: MDA-N 30.4 µM | SNB-75 55.5 µM | OVCAR-5 > 100 µM | SF-295 > 100 µM | Hs-578T > 100 µM | HCT-116 15.7 µM | SR 37.7 µM | MDA-MB-231 > 100 µM | 786-0 22.9 µM | SF-539 71.4 µM | SF-268 87.9 µM | SK-MEL-5 > 100 µM | HT-29 39.3 µM | NCI-H522 86.3 µM | HOP-92 77.3 µM | OVCAR-4 62.4 µM | U-251 > 100 µM | CAKI-1 > 100 µM | OVCAR-8 > 100 µM
